Reference: patent US20040223983A1, “Pharmaceutical preparations, use of these preparations and process for increasing the biovailability of pharmaceutical substances to be administered perorally” (priority 2002, published 2004)
Values after ≈ are worked out from the molar mass of the structure shown. Values joined by “and” are separate entries in the source; they are usually repeats but may differ in a detail not shown here. Identical values can stand only once. Like-named read-outs stand apart in the source and are kept apart here.

Key:
[1] = biological target: human, intestinal P-gp- transporters (Homo sapiens, UniProt P08183); experiment: P-gp- transporter test (calcein AM, MATU cells); details: ratio of fluorescence intensity test solution to blank
Description: In this test, the activity to inhibit the transporters is characterized via ratio (R) that indicates the ratio of the fluorescence intensity of the test solution to the fluorescence intensity of the blank and is directly proportional to inhibiting the P-gp- transporters. Fluorescence intensity test solution corresponds to fluorescence intensity, measured at 485/535 nm (excitation or emission), of cells that contain test solution and calcein AM working solution.
For this purpose, a suspension of human breast cancer cell lines, MATU-cell lines (Max-Dellbrück-Centrum (MDC)-Berlin-Buch; 40,000 cells/well/200 μl) is first added to a microtiter plate (Greiner black 96 plates, clear bottom, sterile). […]
Then, the addition of calcein AM working solution (20 μl/well) to all wells is carried out, i.e., with and without test solution. […] After incubation is completed, the fluorescence is measured in a plate-fluorescence reader (Fluostar®, B&L Systems, Maarssen) at 485/535 nm (excitation or emission).
The following ratio: ratio (R) of the fluorescence intensity of the test solution to the fluorescence intensity of the blank is determined.
The fluorescence intensity of the test solution corresponds to the fluorescence intensity, measured at 485/535 nm (excitation or emission), of the cells that contain the test solution and the calcein AM working solution.

17β-HSD2 = biological target: T1, 17β-HSD2 (Homo sapiens, UniProt P37059); experiment: Metabolic stability, in vitro 17β-HSD2 test on intestinal microsomes; format: in vitro ADME; details: % of starting value of AE2, n=2
T1 construct: Intestinal microsomes (InVitro Technologies); protein content: 24 mg/ml; tissue InVitro Technologies; host or cells: intestinal microsomes
T1 sequence (P37059 1-387): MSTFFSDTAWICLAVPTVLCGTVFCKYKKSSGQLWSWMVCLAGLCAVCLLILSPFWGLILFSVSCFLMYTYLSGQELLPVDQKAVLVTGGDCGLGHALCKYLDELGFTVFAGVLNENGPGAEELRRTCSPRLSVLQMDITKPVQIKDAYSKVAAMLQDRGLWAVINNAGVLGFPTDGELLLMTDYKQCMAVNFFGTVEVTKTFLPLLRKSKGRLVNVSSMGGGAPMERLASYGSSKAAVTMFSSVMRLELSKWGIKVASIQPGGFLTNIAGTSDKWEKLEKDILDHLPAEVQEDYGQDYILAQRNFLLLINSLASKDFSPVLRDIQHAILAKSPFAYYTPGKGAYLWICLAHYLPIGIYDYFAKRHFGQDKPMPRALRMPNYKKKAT
Description: Pharmaceutical preparations according to the invention that contain steroids that have a secondary, beta-position hydroxyl group in 17-position of the sterane skeleton inhibit the 17β-HSD 2, so that less 17-keto-biotransformation product is produced. The inhibition potential is directly proportional to the mass proportion of the formulation according to the invention. […] Example 5; FIG. 3). It can be seen from this that formulations according to the invention are suitable to inhibit 17β-HSD 2.
17β-HSD2 test on microsomes of intestinal origin. Metabolic stability of 0.3 μM of AE2 in an intestinal microsome suspension and production of 17-ketone metabolites after 30 minutes based on the concentration (m/v) of a formulation according to the invention that contains Cremophor®EL and Transcutol®P, Smix 9:1, 20% (m/m), Miglyol®812.
A formulation according to the invention, produced analogously to Example 1a) and containing Cremophor®EL and Transcutol®P, Smix 9:1, 20% (m/m) Miglyol®812, is tested for its property to inhibit 17β-HSD2 in intestinal microsomes. 17β-HSD2 mediates the intestinal enzymatic dehydrogenation of an OH group in 17-position of the sterane skeleton to form a ketone group. An inhibition of the 17β-HSD2 is measured via a test substance AE2, which is the substrate of this enzyme, and is biotransformed into a 17-keto product. The ratio of the AE2 concentration and the 17-ketone-biotransformation product is determined at specific times (0, 10, 20, 30, 45 and 60 minutes) in each case for the starting-AE2 concentration in % (m/m).
For these tests, the following materials are used:
Na-Phosphate buffer: 100 mmol of Na2HPO4×2H2O and 100 mmol of NaH2PO4×H2O
Test substance solution of AE2: AE2 50 μmol in MeOH (in the test batch 0.3 μmol)
Formulation batches of the above-mentioned formulation according to the invention (% m/v): 0%, 0.00441%, 0.0147%, 0.0441%, 0.147% and 0.441% formulation in Na-phosphate buffer (in the test batch 0%, 0.003%, 0.01%, 0.03%, […] and 0.3% formulation).
Cofactor solution: 2 ml of glucose-6-phosphate (160 mmol)/MgCl2 (80 mmol)-mixture is added to 400 μl of a glucose-6-phosphate-dehydrogenase solution, then 15.6 mg of NADP and 13.4 mg of NAD are added.
Microsome solution: Intestinal microsomes (InVitro Technologies; protein content: 24 mg/ml; CYP450 content; 0.058 nmol/mg of protein) Thawed in a water bath at 37° C. (˜60 seconds) and diluted to a concentration of 5 mg/ml of protein with Na-phosphate buffer.
In each case, 170 μl/well of the formulation buffer and 5 μl/well of test substance solution of AE2 are introduced into the corresponding wells, whereby double values are set for each measuring time (0, 10, 20, 30, 45 and 60 minutes).
In each case, 250 μl of ice-cold MeOH is added at the 0-minute values. Immediately after, 25 μl of microsome solution and 50 μl of cofactor solution are added to all wells. The samples of the 0-minute values are stored without incubation at ˜−20° C. for about 24 hours. The other samples are incubated in each case for 10, 20, 30, 45 and 60 minutes at 37° C., and the dehydrogenation reaction is stopped after these times by the addition of 250 μl of ice-cold MeOH in each case. The samples are stored for about 24 hours before they are measured by HPLC at ˜−20° C. and they are centrifuged before HPLC analysis at 3000 rpm, whereby the supernatant is measured.

Lipophilicity (log P) = format: physicochemical
[2] = biological target: T2, Recombinant, Human Cytochrome P450 2C19 Isoenzyme (Homo sapiens, UniProt P33261); experiment: Cytochrome P450 inhibition test, in vitro CYP test (2C19); format: biochemical
T2 construct: purchased Gentest Corp., Woburn, Mass., USA
Description: (§1) In this connection, the inhibition of the enzymes is characterized via the concentration (IC50, μg/ml) of the adjuvants, in which 50% of the respective isoenzymes are inhibited.
(§2) Stock solutions of the respective test substances or test formulations are produced in acetonitrile and diluted with incubation buffer (3 mg/ml in 2% acetonitrile in the batch); additional concentrations are produced by serial dilution. Concentration of the acetonitrile is at most 2% in all batches.
The incubations are set in 96-hole plate format with 200 μl of total volume in double values. The background batch controls the fluorescence of the batch without enzymes and formulations according to the invention, and the inherent fluorescence of the substances is determined in the buffer dilution. The preparation of the dilutions and the pipetting diagram corresponds to the original instructions of the manufacturer of the test kit (Gentest Corp., Woburn, Mass., USA).
(§3) The batches are started by adding the enzyme/substrate mixture, shaken for 30 or 45 minutes in an incubator at 37° C. and then interrupted with 50 μl of stop solution. The plates are briefly shaken, and the fluorescence intensity is measured in the plate-fluorescence reader at the wavelengths for excitation or emission.
(§4) The development of the fluorescent product forms the basis for the calculation. […] The IC50 value is calculated from the concentration-dependent inhibition.

[3] = biological target: T3, Recombinant, Human Cytochrome P450 2C9 Isoenzyme (Homo sapiens, UniProt P11712)
Description: as §1, §2
(§5) The incubations are set in 96-hole plate format with 200 μl of total volume in double values. The background batch controls the fluorescence of the batch without enzymes and formulations according to the invention, and the inherent fluorescence of the substances is determined in the buffer dilution. […]
as §3, §4

[4] = biological target: T4, Recombinant, Human Cytochrome P450 3A4 Isoenzyme (Homo sapiens, UniProt P08684)
Description: as §1, §2, §5, §3, §4

[5] = biological target: T3, Recombinant, Human Cytochrome P450 2C9 Isoenzyme; experiment: Cytochrome P450 inhibition test, in vitro CYP test (2C9); details: substrate 7-MFC, 45 minutes, 37° C.
Description: as §1, §2, §5, §3, §4

[6] = biological target: T4, Recombinant, Human Cytochrome P450 3A4 Isoenzyme; experiment: Cytochrome P450 inhibition test, in vitro CYP test (3A4); details: substrate 7-BFC, 30 minutes, 37° C.
Description: as §1, §2, §5, §3, §4

T2 sequence (P33261 whole entry): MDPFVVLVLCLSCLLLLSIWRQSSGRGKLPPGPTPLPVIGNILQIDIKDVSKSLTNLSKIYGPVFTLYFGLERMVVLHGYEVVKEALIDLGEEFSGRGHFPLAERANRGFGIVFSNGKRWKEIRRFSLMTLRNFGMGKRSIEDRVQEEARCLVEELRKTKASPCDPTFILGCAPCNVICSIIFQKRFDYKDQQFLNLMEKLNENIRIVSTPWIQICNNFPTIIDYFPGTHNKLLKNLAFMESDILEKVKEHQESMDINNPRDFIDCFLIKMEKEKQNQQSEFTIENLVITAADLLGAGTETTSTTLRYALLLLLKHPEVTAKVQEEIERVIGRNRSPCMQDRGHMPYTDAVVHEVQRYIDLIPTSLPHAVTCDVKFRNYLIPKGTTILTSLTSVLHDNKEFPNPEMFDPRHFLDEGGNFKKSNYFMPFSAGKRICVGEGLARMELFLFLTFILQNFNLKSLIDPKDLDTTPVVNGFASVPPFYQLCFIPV
Chain of human, intestinal P-gp- transporters (P08183 whole entry): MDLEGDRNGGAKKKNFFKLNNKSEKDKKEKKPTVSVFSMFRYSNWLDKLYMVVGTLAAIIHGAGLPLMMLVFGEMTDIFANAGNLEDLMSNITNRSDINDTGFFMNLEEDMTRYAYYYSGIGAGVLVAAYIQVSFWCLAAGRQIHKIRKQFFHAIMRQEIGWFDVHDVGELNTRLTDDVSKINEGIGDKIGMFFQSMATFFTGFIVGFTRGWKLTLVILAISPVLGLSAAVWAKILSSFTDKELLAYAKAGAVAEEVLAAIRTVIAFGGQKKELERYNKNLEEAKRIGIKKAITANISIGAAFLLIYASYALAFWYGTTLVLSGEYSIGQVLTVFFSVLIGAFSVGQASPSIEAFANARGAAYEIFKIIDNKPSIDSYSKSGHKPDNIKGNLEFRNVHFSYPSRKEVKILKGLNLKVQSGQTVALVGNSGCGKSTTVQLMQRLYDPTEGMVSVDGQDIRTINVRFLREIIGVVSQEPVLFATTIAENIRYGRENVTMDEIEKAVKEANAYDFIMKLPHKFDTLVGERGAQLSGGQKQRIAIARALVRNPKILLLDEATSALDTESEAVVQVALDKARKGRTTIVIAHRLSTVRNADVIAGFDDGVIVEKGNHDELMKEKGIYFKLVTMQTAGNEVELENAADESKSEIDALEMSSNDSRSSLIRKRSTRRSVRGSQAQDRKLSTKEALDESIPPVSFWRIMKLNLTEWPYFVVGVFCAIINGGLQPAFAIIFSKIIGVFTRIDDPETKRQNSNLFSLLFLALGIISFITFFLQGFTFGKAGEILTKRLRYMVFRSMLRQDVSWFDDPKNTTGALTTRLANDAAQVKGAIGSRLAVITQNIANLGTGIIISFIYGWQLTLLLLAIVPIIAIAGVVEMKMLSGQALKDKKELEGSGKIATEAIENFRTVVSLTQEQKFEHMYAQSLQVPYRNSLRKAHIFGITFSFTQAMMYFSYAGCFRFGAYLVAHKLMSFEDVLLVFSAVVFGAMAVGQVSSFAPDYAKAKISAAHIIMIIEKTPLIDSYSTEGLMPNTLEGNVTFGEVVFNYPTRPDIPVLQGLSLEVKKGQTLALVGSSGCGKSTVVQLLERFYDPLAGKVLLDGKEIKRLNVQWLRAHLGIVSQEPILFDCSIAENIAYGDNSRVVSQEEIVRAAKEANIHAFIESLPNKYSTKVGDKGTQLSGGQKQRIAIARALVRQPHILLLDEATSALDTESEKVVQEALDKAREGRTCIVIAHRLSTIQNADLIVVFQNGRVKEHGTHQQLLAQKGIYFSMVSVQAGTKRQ
T3 sequence (P11712 whole entry): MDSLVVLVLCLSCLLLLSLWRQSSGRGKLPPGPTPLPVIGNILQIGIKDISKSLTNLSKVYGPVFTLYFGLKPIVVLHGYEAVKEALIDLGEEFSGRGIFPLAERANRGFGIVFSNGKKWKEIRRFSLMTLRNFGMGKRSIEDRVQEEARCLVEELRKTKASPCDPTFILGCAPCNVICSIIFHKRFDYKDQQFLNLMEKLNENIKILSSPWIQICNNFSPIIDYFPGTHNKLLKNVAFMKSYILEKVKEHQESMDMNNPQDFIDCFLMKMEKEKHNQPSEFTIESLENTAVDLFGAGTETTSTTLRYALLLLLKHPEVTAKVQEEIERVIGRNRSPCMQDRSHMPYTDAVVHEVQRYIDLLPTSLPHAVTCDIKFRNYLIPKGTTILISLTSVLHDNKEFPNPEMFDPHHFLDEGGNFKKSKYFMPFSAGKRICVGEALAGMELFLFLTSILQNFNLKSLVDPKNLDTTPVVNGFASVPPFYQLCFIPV
T4 sequence (P08684 whole entry): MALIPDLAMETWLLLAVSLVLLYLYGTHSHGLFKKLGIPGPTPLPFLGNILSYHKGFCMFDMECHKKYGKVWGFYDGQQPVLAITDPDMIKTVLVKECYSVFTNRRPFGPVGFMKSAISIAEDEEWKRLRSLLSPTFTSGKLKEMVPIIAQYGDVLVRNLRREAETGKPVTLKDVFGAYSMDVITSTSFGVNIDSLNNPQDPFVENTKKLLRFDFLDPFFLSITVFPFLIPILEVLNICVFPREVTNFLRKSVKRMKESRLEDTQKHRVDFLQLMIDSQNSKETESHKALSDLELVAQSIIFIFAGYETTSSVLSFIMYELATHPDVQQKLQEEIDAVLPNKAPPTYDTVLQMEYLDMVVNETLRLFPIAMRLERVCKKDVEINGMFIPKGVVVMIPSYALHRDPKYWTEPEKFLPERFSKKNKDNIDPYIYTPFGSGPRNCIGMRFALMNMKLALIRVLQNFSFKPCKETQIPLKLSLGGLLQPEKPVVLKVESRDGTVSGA

## CN(CCCCC[C@@H]1Cc2cc(O)ccc2[C@@H]2[C@@H]1[C@@H]1CC[C@H](O)[C@@]1(C)C[C@@H]2F)CCCSCCCC(F)(F)C(F)(F)F [AE1, 11β-fluoro-7α-{5-[N-methyl-N-3-(4,4,5,5,5-pentafluoropentylthio)-propylamino]-pentyl}-estra-1,3,5(10)-triene-3,17β-diol]
[1]; P-gp substrate
  R: 2.43

## CN(CCCCCCC(F)(F)C(F)(F)C(F)(F)C(F)(F)F)CCCCC[C@@H]1Cc2cc(O)ccc2[C@@H]2[C@@H]1[C@@H]1CC[C@H](O)[C@@]1(C)C[C@@H]2F [AE2, 11β-fluoro-7α-{5-[methyl-(7,7,8,8,9,9,10,10,10-nonafluorodecyl)amino]pentyl}estra-1,3,5(10)-triene-3,17β-diol]
17β-HSD2; 0.0% Cremophor EL/Miglyol 812/Transcutol P (72T/20T/8T) in test batch
  amount of genuine AE2 after 30 minutes in the microsome suspension: 64% and 66%
17β-HSD2; 0.003% Cremophor EL/Miglyol 812/Transcutol P (72T/20T/8T) in test batch
  amount of genuine AE2 after 30 minutes in the microsome suspension: 70% and 71%
17β-HSD2; 0.01% Cremophor EL/Miglyol 812/Transcutol P (72T/20T/8T) in test batch
  amount of genuine AE2 after 30 minutes in the microsome suspension: 75% and 76%
17β-HSD2; 0.03% Cremophor EL/Miglyol 812/Transcutol P (72T/20T/8T) in test batch
  amount of genuine AE2 after 30 minutes in the microsome suspension: 89% and 83%
17β-HSD2; 0.1% Cremophor EL/Miglyol 812/Transcutol P (72T/20T/8T) in test batch
  amount of genuine AE2 after 30 minutes in the microsome suspension: 109% and 114%
17β-HSD2; 0.3% Cremophor EL/Miglyol 812/Transcutol P (72T/20T/8T) in test batch
  amount of genuine AE2 after 30 minutes in the microsome suspension: 106% and 109%
Lipophilicity (log P)
  logP: 5.9

## CCCCCCCC/C=C\CCCCCCCC(=O)OCC [Ethyl oleate, Ethyl oleate (EO)]
[2]
  IC50 CYP-2C19: 325 µg/mL (≈ 1.05 mM)
[3]
  IC50 CYP-2C9: 195 µg/mL (≈ 0.628 mM)
[4]
  IC50 CYP-3A4: 117 µg/mL (≈ 0.377 mM)

## CCOCCOCCO [Transcutol ® P, Ethoxydiglycol]
[2]
  IC50 CYP-2C19: 1400 µg/mL (≈ 10.4 mM)
[1]; calcein AM, 485/535 nm, MATU cells, test solutions 0.3 to 33.3 μmol
  Maximum R-Value: 1.18
[5]
  IC50 CYP-2C9: 1500 µg/mL (≈ 11.2 mM)
[6]
  IC50 CYP-3A4: 755 µg/mL (≈ 5.63 mM)

## C8-C12 triglycerides (MCT) [Miglyol ® 812]
[2]
  IC50 CYP-2C19: 100 µg/mL

## PEG-40-hydrogenated castor oil [Cremophor ® RH40]
[2]
  IC50 CYP-2C19: 11 µg/mL

## PEG-400-monoricinoleate [Estax ® 54]
[2]
  IC50 CYP-2C19: 0.7 µg/mL

## Polyethylene glycol-35-castor oil [Cremophor ® EL]
[2]
  IC50 CYP-2C19: 10 µg/mL

## Polysorbate 80 [Tween ® 80]
[2]
  IC50 CYP-2C19: 8.4 µg/mL

## Refined castor oil (RIZ)
[2]
  IC50 CYP-2C19: >3000 µg/mL
